Here are results for 1 compound from patent US20050215551A1, “1-[2H-1-benzopyran-2-one-8-yl]- piperazine derivatives for the treatment of movement disorders” (SOLVAY PHARMACEUTICALS B.V., priority 2004, published 2005).

As a reminder, the Ki is a dissociation constant, usually derived from enzyme kinetics or from competition with a known ligand.

One test deals with angiotensin-AT2 (Homo sapiens, UniProt P50052). As to the kind of experiment: Receptor binding angiotensin-AT2. The following applies: radioligand [125I]-CPG 42112A, read-out: Ki(nM) Compound 1. Here is the method: (§1) Receptor binding data were obtained by CEREP (128, rue Danton, 92500 Rueil-Malmaison, France) or at Solvay Pharmaceuticals B.V., using well documented standard procedures. Affinity for 5-HT1A receptors for instance, was determined by testing the ability of the compounds of the invention to displace [^3H]-2-(di-n-propylamino)-8-hydroxytetralin ([^3H]-8-OH-DPAT) from its specific binding sites in rat frontal cortex homogenates. This test is based on the method described by Gozlan et al. (Nature, 305, (1983), pages 140-142).
(§2) The binding data collected in the table below were either obtained by CEREP (128, rue Danton, 92500 Rueil-Malmaison, France) or at Solvay Pharmaceuticals B.V., using well documented standard procedures.

Another test has as its target Muscarine-M2 (Homo sapiens, UniProt P08172). The test can be described thus: Receptor binding Muscarine-M2. The following applies: radioligand [3H]-AFDX-384, read-out: Ki(nM) Compound 1. As to the method: as §1, §2
In another test the target is bradykinin (Homo sapiens, UniProt P30411). As to the kind of experiment: Receptor binding bradykinin. The following applies: radioligand [3H]-bradykinin, read-out: Ki(nM) Compound 1. As to the method:
as §1, §2

Another test concerns the target Endothelin-ETB (Homo sapiens, UniProt P24530). The test can be described thus: Receptor binding Endothelin-ETB. The following applies: radioligand [125I]-endothelin-1, read-out: Ki(nM) Compound 1. As to the method:
as §1, §2

The next test addresses 5-HT5 (Homo sapiens, UniProt P47898). The test can be described thus: Receptor binding 5-HT5. The following applies: radioligand [3H]-LSD, read-out: Ki(nM) Compound 1. As to the method:
as §1, §2

For the next test, the target named is angiotensin-AT1 (Homo sapiens, UniProt P30556). The test can be described thus: Receptor binding angiotensin-AT1. The following applies: radioligand [125I]-angiotensin II, read-out: Ki(nM) Compound 1. Here is the method:
as §1, §2

The target of another test is Dopamine-D4 (Homo sapiens, UniProt P21917). The test can be described thus: Receptor binding Dopamine-D4. As to conditions: radioligand [3H]-spiperone, read-out: Ki(nM) Compound 1. Here is the method:
as §1, §2

The next test concerns the target Dopaminereuptake (Homo sapiens, UniProt Q01959). As to the kind of experiment: Binding Dopamine reuptake. The following applies: radioligand [3H]-GBR 12935, read-out: Ki(nM) Compound 1. Here is the method:
as §1, §2

The next test has as its target Muscarine-M5 (Homo sapiens, UniProt P08912). The test can be described thus: Receptor binding Muscarine-M5. As to conditions: radioligand [3H]-4-DAMP, read-out: Ki(nM) Compound 1. As to the method: as §1, §2
Another test concerns the target Histamine-H2 (Homo sapiens, UniProt P25021). As to the kind of experiment: Receptor binding Histamine-H2. As to conditions: radioligand [125I]-APT, read-out: Ki(nM) Compound 1. Here is the method:
as §1, §2

In another test the target is NAreuptake (Homo sapiens, UniProt P23975). As to the kind of experiment: Binding NA reuptake. The following applies: radioligand [3H]-nisoxetin, read-out: Ki(nM) Compound 1. As to the method: as §1, §2
The target of another test is Neuropeptide Y1 (Homo sapiens, UniProt P25929). The test can be described thus: Receptor binding Neuropeptide Y1. The following applies: radioligand [125I]-PYY, read-out: Ki(nM) Compound 1. Here is the method:
as §1, §2

For a further test, the target named is Adenosine-A2A (Homo sapiens, UniProt P29274). The test can be described thus: Receptor binding Adenosine-A2A. As to conditions: radioligand [3H]-CGS 21680, read-out: Ki(nM) Compound 1. Here is the method: as §1, §2
Another test deals with CCR1 (Homo sapiens, UniProt P32246). The test can be described thus: Receptor binding CCR1. The following applies: radioligand [125I]-MIP-1a, read-out: Ki(nM) Compound 1. As to the method:
as §1, §2

The subject of another test is GDNF. The test can be described thus: Induction of growth factors: GDNF RNA in brain areas by quantitative PCR. Format: in vivo. The following applies: 3 mg/kg p.o. once daily, 3 weeks. Here is the method:
Compounds of the invention (3 mg/kg, p.o.) or vehicle are administered once daily during a period of 3 weeks (n=8 animals per treatment group). 24 hours after the last dose the animals are sacrificed (using CO2/O2 anesthesia), the brains are removed and the dissected. RNA is extracted from the individual brain samples and induction of the growth factors BDNF and GDNF is determined by quantitative PCR. Total RNA is isolated with the Trizol method (Invitrogen) from the brain pieces. cDNA is made starting with 2 μg of total RNA (pretreated for 30 min with DNAse (Ambion) in first strand buffer) using the reverse transcriptase Superscript II (Invitrogen). Quantification of […] by real time PCR makes use of the observation that the early cycles of PCR are characterized by an exponential increase in target amplification. The accumulation of PCR product is measured using Sybergreen II. Primers are designed using the software package Primer Express (Applied Biosystems). Expression levels of the housekeeping genes ornithine decarboxylase (ODC_ex8) and alpha tubulin (TUBA) used for normalization and as control for good cDNA synthesis.

The next test has as its target Muscarine-M4 (Homo sapiens, UniProt P08173). The test can be described thus: Receptor binding Muscarine-M4. As to conditions: radioligand [3H]-4-DAMP, read-out: Ki(nM) Compound 1. Here is the method: as §1, §2
Another test has as its target Dopamine-D1 (Homo sapiens, UniProt P21728). The test can be described thus: Receptor binding Dopamine-D1. As to conditions: radioligand [3H]-SCH 23390, read-out: Ki(nM) Compound 1. Here is the method: as §1, §2
In another test the target is 5-HT2A (Homo sapiens, UniProt P28223). The test can be described thus: Receptor binding 5-HT2A. As to conditions: radioligand [3H]-ketanserin, read-out: Ki(nM) Compound 1. Here is the method: as §1, §2
Chain of 5-HT2A (P28223 whole entry): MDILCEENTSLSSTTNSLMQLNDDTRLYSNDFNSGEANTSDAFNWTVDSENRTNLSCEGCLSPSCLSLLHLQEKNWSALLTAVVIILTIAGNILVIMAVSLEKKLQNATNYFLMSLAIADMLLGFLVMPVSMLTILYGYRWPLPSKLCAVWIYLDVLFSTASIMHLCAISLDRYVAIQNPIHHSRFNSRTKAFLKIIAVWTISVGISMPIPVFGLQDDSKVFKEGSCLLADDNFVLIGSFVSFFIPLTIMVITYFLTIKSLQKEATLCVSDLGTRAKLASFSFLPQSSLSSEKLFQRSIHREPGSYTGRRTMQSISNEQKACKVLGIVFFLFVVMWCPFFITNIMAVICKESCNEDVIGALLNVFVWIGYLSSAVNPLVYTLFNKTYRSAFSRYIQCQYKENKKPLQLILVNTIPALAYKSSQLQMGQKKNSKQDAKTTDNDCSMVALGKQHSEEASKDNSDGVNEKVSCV

Chain of Endothelin-ETB (P24530 27-442): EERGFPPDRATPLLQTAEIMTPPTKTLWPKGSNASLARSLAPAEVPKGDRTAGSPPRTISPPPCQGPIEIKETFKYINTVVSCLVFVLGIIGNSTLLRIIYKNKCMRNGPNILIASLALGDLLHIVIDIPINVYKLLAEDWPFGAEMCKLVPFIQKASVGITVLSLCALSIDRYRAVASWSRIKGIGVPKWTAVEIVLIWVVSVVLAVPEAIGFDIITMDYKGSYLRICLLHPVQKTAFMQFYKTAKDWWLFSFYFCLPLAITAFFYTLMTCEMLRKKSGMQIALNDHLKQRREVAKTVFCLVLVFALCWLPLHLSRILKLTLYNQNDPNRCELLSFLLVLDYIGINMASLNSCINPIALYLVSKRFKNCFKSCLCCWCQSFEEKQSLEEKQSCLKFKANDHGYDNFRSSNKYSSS
Chain of Adenosine-A2A (P29274 whole entry): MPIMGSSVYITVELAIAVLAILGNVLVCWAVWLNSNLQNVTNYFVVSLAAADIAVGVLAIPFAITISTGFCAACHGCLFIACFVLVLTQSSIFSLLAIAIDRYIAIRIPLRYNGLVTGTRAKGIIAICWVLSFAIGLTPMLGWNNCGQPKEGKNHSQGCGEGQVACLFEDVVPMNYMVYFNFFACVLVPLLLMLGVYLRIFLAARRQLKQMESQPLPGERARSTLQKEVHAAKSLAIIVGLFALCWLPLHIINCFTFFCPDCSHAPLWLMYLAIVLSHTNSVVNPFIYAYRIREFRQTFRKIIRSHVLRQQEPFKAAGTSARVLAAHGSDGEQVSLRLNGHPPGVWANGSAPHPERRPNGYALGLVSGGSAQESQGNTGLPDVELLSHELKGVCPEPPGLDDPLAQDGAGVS
Chain of Histamine-H2 (P25021 whole entry): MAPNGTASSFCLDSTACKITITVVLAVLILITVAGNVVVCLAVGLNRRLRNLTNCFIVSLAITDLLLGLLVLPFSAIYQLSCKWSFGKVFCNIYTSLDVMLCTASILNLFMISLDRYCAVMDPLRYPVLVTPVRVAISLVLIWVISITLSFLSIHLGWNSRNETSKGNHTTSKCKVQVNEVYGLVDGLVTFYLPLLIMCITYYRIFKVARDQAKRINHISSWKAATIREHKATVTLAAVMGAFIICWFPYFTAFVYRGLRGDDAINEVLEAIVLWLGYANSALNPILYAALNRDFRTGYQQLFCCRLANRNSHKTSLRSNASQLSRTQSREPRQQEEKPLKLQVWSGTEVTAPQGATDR
Chain of CCR1 (P32246 whole entry): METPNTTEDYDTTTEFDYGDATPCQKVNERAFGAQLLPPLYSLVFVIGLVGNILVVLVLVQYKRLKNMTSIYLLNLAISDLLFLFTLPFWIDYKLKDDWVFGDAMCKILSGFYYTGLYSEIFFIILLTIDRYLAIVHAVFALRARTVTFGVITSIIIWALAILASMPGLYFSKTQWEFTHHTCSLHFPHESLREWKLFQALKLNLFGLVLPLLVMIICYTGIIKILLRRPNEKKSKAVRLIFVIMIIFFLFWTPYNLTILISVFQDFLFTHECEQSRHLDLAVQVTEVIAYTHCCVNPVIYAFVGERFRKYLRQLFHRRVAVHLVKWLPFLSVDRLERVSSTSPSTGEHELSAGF
Chain of bradykinin (P30411 whole entry): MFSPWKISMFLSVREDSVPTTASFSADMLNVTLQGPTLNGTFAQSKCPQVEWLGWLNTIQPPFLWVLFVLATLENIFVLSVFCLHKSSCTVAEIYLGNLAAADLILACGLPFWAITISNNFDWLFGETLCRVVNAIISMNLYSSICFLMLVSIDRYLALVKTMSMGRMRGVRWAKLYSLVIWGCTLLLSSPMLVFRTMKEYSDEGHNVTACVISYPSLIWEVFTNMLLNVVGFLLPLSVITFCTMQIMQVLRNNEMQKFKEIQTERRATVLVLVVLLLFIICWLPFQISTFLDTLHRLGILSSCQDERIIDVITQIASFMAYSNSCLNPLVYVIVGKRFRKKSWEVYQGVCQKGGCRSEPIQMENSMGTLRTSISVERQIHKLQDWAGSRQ
Chain of angiotensin-AT1 (P30556 whole entry): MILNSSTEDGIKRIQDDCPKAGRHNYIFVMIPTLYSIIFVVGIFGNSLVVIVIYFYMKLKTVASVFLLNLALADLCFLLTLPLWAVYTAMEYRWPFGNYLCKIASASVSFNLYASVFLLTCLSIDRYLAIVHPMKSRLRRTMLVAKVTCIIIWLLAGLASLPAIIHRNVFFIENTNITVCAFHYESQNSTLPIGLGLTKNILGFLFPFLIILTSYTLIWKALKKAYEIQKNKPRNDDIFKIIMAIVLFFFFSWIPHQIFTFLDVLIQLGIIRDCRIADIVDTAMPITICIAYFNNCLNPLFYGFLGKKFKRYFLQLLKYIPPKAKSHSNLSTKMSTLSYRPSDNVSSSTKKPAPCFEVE
Chain of Dopaminereuptake (Q01959 whole entry): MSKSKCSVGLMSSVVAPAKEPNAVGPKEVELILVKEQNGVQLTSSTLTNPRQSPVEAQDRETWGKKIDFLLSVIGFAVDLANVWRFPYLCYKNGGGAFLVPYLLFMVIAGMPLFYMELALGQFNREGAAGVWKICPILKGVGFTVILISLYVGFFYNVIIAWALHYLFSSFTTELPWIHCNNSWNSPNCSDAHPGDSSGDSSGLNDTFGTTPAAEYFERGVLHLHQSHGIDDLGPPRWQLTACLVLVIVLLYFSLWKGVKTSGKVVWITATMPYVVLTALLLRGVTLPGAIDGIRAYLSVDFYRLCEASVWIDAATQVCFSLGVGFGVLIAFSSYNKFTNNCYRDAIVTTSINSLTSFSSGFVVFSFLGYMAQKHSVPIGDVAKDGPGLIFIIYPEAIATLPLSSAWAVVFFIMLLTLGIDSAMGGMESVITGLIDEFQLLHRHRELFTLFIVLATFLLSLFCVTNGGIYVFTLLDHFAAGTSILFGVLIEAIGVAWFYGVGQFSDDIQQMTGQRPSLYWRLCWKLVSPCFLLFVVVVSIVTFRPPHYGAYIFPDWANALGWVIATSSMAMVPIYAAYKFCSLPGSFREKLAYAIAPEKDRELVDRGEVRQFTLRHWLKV
Chain of angiotensin-AT2 (P50052 whole entry): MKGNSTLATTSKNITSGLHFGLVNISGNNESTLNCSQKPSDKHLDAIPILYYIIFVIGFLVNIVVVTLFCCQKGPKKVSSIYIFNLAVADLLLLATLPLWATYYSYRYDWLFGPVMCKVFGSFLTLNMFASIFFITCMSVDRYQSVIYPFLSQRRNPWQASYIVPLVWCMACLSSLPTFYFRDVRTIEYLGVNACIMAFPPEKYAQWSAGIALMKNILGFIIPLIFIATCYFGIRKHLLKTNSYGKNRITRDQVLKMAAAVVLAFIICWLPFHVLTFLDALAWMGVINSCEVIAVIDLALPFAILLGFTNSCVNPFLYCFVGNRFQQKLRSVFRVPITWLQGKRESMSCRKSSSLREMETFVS
Chain of NAreuptake (P23975 whole entry): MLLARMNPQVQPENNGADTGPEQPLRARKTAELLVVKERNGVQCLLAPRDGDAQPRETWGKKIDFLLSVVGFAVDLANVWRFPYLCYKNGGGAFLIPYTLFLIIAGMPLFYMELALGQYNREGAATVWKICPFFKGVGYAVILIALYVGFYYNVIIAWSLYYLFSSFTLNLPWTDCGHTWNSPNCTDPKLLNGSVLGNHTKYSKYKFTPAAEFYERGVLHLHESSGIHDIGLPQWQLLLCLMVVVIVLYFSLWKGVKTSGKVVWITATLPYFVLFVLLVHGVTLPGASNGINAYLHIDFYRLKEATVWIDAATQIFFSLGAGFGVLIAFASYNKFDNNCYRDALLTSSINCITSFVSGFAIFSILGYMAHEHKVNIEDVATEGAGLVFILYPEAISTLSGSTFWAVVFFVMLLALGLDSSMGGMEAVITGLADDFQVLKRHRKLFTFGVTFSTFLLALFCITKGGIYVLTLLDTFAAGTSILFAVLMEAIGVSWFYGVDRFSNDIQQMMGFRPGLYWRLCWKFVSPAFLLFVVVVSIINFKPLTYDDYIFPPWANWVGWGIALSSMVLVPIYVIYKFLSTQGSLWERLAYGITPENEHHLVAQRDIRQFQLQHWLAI
Chain of Muscarine-M2 (P08172 whole entry): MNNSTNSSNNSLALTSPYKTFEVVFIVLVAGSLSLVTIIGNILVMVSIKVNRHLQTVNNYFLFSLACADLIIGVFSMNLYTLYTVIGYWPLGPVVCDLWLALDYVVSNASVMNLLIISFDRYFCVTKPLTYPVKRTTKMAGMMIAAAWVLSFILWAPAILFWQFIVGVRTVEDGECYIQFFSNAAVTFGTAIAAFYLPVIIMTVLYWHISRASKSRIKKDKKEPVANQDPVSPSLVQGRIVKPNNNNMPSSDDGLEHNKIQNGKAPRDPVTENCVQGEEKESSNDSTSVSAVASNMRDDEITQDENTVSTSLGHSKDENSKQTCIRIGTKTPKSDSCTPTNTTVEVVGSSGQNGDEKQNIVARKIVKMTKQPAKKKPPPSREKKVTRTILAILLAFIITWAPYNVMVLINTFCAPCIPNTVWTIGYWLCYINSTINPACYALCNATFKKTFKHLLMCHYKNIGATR

`Nc1cc2cccc(N3CCNCC3)c2oc1=O` [Compound 1, 3-amino-8-(1-piperazinyl)-2H-1-benzopyran-2-one]: the Ki at angiotensin-AT2 was above 1000 nM; at Muscarine-M2 it was above 1000 nM; on bradykinin it was above 1000 nM; at Endothelin-ETB, above 1000 nM; at 5-HT5, 100 nM; at angiotensin-AT1, above 1000 nM. Moreover, the Ki on Dopamine-D4, on Dopaminereuptake, on Muscarine-M5, at Histamine-H2, on NAreuptake and on Neuropeptide Y1 was above 1000 nM each time. The Ki at Adenosine-A2A was above 1000 nM; on CCR1, above 1000 nM; at Muscarine-M4 it was above 1000 nM; at Dopamine-D1, above 1000 nM; on 5-HT2A it was 630 nM. The “GDNF RNA, fold increase compared to vehicle treatment” value in the test on GDNF (hippocampus) was 1.7 fold; in the test on GDNF (nucleus accumbens), 1.5 fold; with GDNF (prefrontal cortex), 1.3 fold; in the test on GDNF (striatum) it was 2.2 fold; in the test on GDNF (thalamus), 2.6 fold.
